Results: publication PMC8403366, “Functional significance of gain-of-function H19 lncRNA in skeletal muscle differentiation and anti-obesity effects” (Genome Medicine, 2021)
Changes are numbered by the printed parent chain. In names and notes the source's numbering stands.

Key:
iPSC-SkMC = assay: Immunoblot of DMD, phosphorylated DMD and Ub-DMD in iPSC-SkMC; assay type: cell-based, human; conditions: for DMD phosphorylation / DMD protein levels / Ub-DMD: BMD iPSC-SkMC
From the text: The human skin fibroblasts GM09503 (healthy donor), GM02298 (BMD patient), or GM04569 (BMD patient) were obtained from the Coriell Institute and reprogramed to iPSC by Baylor Human Stem Cell Core. Clinical information is summarized in Additional file 2: Table S2. iPSCs from patients with BMD were used to study the potential molecular mechanisms of DMD stability within pathological context. iPSCs were maintained in feeder-free conditions using the mTeSR™1 medium (Stemcell technologies) on hESC-Qualified Matrigel (Corning) coated plates at 37 °C with 5% CO2. H19 knockout iPSC cell lines were generated using the CRISPR-Cas9 genome editing system, as described previously. iPSCs transfected with sgRNAs were selected with puromycin (250 ng/ml) for 7 days. Emerging iPSC colonies were picked individually and further expanded in mTeSR™1 medium. The presence of targeted gene knockout was confirmed by further genotyping characterization and PCR product sequencing.
For myogenic differentiation, iPSCs were differentiated into skeletal muscle cells using Skeletal Muscle Differentiation Kit (Genea Biocells) according to the manufacturer’s protocol. Briefly, iPSCs were plated onto a collagen I coated plate and maintained for 6–10 days in Skeletal Muscle Induction Medium (Genea Biocells) until confluent. Dissociated myogenic precursors were then plated on a collagen I coated plate and cultured in Skeletal Myoblast Medium (Genea Biocells) for 6–8 days. When confluent, cells were maintained in Myotube Medium or Myotube Fusion Medium (Genea Biocells). Cryopreserved stocks of myoblasts Genea002 were obtained from Genea Biocells. Genea002 was initially maintained in Skeletal Myoblast Medium and changed to Myotube Medium or Myotube Fusion Medium when confluent.

SNCA = conditions: cited from earlier work
From the text: (§1) SNCA plays important roles in Parkinson’s disease through mediating the aggregation of protofibrils. […] MRCKα is a se ...

[1] = tested on: interaction between H19 and DMD; assay: RIP assay in iPSC-SkMC; assay type: cell-based, human; conditions: for interaction between H19 and DMD: iPSC-SkMC from healthy donor 09503 or BMD patient 02298; for interaction between HuR and Actin: specificity control
[2] = molecular target: T1, DMD C-terminus (ZnF domain) WT (human, UniProt P11532 3046-3685); assay: alpha assay competition; conditions: EMSA and RNA-protein binding: 50 mM Tris-HCl pH 7.9, 10% glycerol, 100 mM KCl, 5 mM MgCl2, 10 mM beta-ME, 0.1% NP-40, 30 C, 30 min (EMSA) or 1 h (dot blot) …
C57BL/6 J mice = assay: RT-qPCR of H19 and Dmd in TA of treated mice; assay type: in vivo, mouse; conditions: male mice, n = 5
Procedure: Total RNA was isolated from the snap-frozen samples using the RNeasy Plus Mini Kit (Qiagen). cDNA was synthesized from 1 μg of RNA using the iScript™ cDNA Synthesis Kit (Bio-Rad). Quantitative real-time PCR was performed using SsoAdvanced™ Universal SYBR® Green Supermix (Bio-Rad).

[3] = molecular target: T1, DMD C-terminus (ZnF domain) WT; assay: alpha assay saturation; conditions: EMSA and RNA-protein binding: 50 mM Tris-HCl pH 7.9, 10% glycerol, 100 mM KCl, 5 mM MgCl2, 10 mM beta-ME, 0.1% NP-40, 30 C, 30 min (EMSA) or 1 h (dot blot) …
MRCKα = conditions: cited from earlier work
From the text: as §1

[4] = molecular target: T1, DMD C-terminus (ZnF domain) WT; assay: alpha assay competition; EMSA and RNA-protein binding: 50 mM Tris-HCl pH 7.9, 10% glycerol, 100 mM KCl, 5 mM MgCl2, 10 mM beta-ME, 0.1% NP-40, 30 C, 30 min (EMSA) or 1 h (dot blot); alpha assay conditions not in the material; conditions: protein: recombinant, tags: His, label: 32P (EMSA), single strand

T1 sequence (P11532 3046-3685): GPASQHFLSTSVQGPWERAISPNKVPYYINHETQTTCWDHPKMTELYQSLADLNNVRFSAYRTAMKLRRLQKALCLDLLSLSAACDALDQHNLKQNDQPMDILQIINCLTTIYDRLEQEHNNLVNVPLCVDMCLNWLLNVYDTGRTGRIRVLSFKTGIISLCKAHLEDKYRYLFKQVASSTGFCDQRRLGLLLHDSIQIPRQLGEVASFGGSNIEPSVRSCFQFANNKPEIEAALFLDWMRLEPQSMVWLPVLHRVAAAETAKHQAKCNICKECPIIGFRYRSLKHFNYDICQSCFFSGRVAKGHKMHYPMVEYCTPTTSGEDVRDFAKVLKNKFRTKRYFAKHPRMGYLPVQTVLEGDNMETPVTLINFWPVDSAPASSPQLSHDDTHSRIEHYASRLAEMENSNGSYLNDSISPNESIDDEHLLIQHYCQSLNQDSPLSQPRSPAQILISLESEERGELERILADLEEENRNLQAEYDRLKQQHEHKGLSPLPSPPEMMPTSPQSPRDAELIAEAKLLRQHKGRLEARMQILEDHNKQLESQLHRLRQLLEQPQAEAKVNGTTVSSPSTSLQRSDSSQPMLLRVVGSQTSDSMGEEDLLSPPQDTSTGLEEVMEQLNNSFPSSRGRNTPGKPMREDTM

In the case of `N#Cc1c(C(F)(F)F)c([N+](=O)[O-])c(-c2cccc([N+](=O)[O-])c2)[nH]c1=O` [SC-D, SynuClean-D], the DMD phosphorylation (iPSC-SkMC) is reported as “reduced”, the DMD protein levels (iPSC-SkMC) is reported as “improved” and the Ub-DMD (iPSC-SkMC) is reported as “reduced”. For the same molecule, the “phosphorylation of DMD” value (iPSC-SkMC; iPSC-SkMC with exogenous expression of SNCA) was “attenuated”, the “SNCA aggregation in muscle tissues” value (SNCA) was “reduces” and the “interaction between H19 and DMD” value [1] was “significantly improved”. The “interaction between HuR and Actin” value [1] was “minimal effects”.

H19-WT mimic gave a Kd [2] of 130 nM.

In the case of “N-terminal-ELTNEIPAELTNEIPA-Linker-5'-[2’-F-C][2’-F-U][2’-F-C][2’-F-U][2’-F-U][2’-F-A][2’-F-C][2’-F-A][2’-F-A][2’-F-U][2’-F-C][2’-F-U][2’-F-G][2’-F-A][2’-F-G][2’-F-C][2’-F-U][2’-F-U][2’-F-U][2’-F-C][2’-F-C][2’-F-A][2’-F-C][2’-F-A][2’-F-G][2’-F-U][2’-F-U][2’-F-U][2’-F-C][2’-F-C]-3' [AGR-H19-Rlof, agrin peptide conjugated to H19 RNA loss-of-function mimic]”, the “expression of H19 in TA” value (C57BL/6 J mice) is reported as “minimal effects” and the “expression of the Dmd transcript in TA” value (C57BL/6 J mice) is reported as “minimal effects”.

For human H19 sense transcript, the Kd [3] was 71.1 nM.

For “N-terminal-ELTNEIPAELTNEIPA-Linker-5'-[2'-F-U][2'-F-G][2'-F-G][2'-F-C][2'-F-C][2'-F-A][2'-F-A][2'-F-U][2'-F-G][2'-F-C][2'-F-C][2'-F-C][2'-F-U][2'-F-G][2'-F-G][2'-F-C][2'-F-U][2'-F-C][2'-F-A][2'-F-C][2'-F-A][2'-F-A][2'-F-A][2'-F-U][2'-F-A][2'-F-C][2'-F-C][2'-F-A][2'-F-C][2'-F-U]-3' [AGR-Scr, agrin peptide conjugated to scramble oligonucleotides; control, reference compound]”, the “expression of H19 in TA” value (C57BL/6 J mice) was “minimal effects” and the “expression of the Dmd transcript in TA” value (C57BL/6 J mice) was “minimal effects”.

For mouse H19 sense transcript, the Kd [3] was 78.6 nM.

With `O=C(Nc1cn[nH]c1-c1ccccn1)c1nn(C2CCNCC2)cc1Cl` [BDP5290] the DMD phosphorylation (iPSC-SkMC) was “reduced”, the DMD protein levels (iPSC-SkMC) was “improved” and the Ub-DMD (iPSC-SkMC) was “reduced”. For the same molecule, the IC50 (MRCKα) was 10 nM, the “interaction between H19 and DMD” value [1] was “significantly improved” and the “interaction between HuR and Actin” value [1] was “minimal effects”.

B1: hH19 1951-1980 WT (ssRNA)
RNA: CUUUGUUUCUGAGCUUUCCUGUCUUUCCUU
Molecule B1 has a Kd ([4]; biotin or unlabeled (alpha assay)) of 116 nM.

B2: hH19 1951-1980 Rgof (G1955A/G1971A) (ssRNA)
RNA: B1 RNA with G5A, G21A
For B2, the Kd [4] was 14.9 nM.
